Pest or weed control, Efficacy in % and chromatographic logP data for 56 molecules are collected here from patent publication US20060089499A1, “Pyrazolopyrimidines and the use thereof for controlling harmful organisms” (priority 2002, published 2006).

The test system of one data set is Venturia inaequalis. Put plainly: Venturia test (apple)/protective. The data set is classed as in vivo. The following applies: topical, 240 h, protective, application rate 100 g/ha, evaluation 10 days after inoculation, read-out: Efficacy in %. How it is done:
Venturia Test (Apple)/Protective [table] To produce a suitable preparation of active compound, 1 part by weight of active compound is mixed with the stated amounts of solvent and emulsifier, and the concentrate is diluted with water to the desired concentration. To test for protective activity, young plants are sprayed with the preparation of active compound at the stated application rate. After the spray coating has dried on, the plants are inoculated with an aqueous conidia suspension of the apple scab pathogen Venturia inaequalis and then remain in an incubation cabin at about 20° C. and 100% relative atmospheric humidity for 1 day. The plants are then placed in a greenhouse at about 21° C. and a relative atmospheric humidity of about 90%.

The subject of the next data set is Botrytis cinerea. Put plainly: Botrytis test (bean)/protective. The data set is classed as in vivo. The note with it: topical, 48 h, protective, application rate 500 g/ha, evaluation 2 days after inoculation, read-out: Efficacy in %. How it is done:
Botrytis Test (Bean)/Protective
To produce a suitable preparation of active compound, 1 part by weight of active compound is mixed with the stated amounts of solvent and emulsifier, and the concentrate is diluted with water to the desired concentration. To test for protective activity, young plants are sprayed with the preparation of active compound at the stated application rate. After the spray coating has dried on, 2 small pieces of agar colonized by Botrytis cinerea are placed onto each leaf. The inoculated plants are placed in a dark chamber at about 20° C. and 100% relative atmospheric humidity.
2 days after the inoculation, the size of the infected areas on the leaves is evaluated. 0% means an efficacy which corresponds to that of the control, whereas an efficacy of 100% means that no infection is observed.

The test system of the next data set is Alternaria solani. Put plainly: Alternaria test (tomato)/protective. The data set is classed as in vivo. The following applies: protective, application rate 750 g/ha, evaluation 7 days after inoculation. How it is done:
(Tomato)/Protective [table] To produce a suitable preparation of active compound, 1 part by weight of active compound is mixed with the stated amounts of solvent and emulsifier, and the concentrate is diluted with water to the desired concentration. To test for protective activity, young tomato plants are sprayed with the preparation of active compound at the stated application rate. 1 day after the treatment, the plants are inoculated with a spore suspension of Alternaria solani and then remain at 100% rel. humidity and 20° C. for 24 h. The plants then remain at 96% rel. atmospheric humidity and a temperature of 20° C.

The test system of the next data set is Pyricularia oryzae. In kind it is in vivo. The note with it: rice, protective, application rate 500 g/ha, evaluation 6 days after inoculation.

For `CC(Nc1c(-c2ccc(F)cc2Cl)c(Cl)nc2c(C#N)cnn12)C(F)(F)F` (stereo not drawn) [drawing 103], the pest or weed control at 100 g/ha with Venturia inaequalis is 93%. On to `CC(Nc1c(-c2ccc(F)cc2Cl)c(Cl)nc2c(C#N)cnn12)C(F)(F)F` (stereo not drawn) [drawing 123], for which the pest or weed control at 500 g/ha with Botrytis cinerea turned out to be 99%. For `CC1CCN(c2c(-c3c(F)cccc3Cl)c(Cl)nc3c(C#N)cnn23)CC1` [drawing 112], the pest or weed control at 500 g/ha in the data set on Botrytis cinerea turned out to be 96%. Consider `C[C@H](Nc1c(-c2ccc(F)cc2Cl)c(Cl)nc2c(C#N)cnn12)C(F)(F)F` [drawing 124], for which, in the data set with Botrytis cinerea, the pest or weed control at 500 g/ha is 100%.

On to `C[C@H](Nc1c(-c2c(F)cccc2Cl)c(Cl)nc2c(C#N)cnn12)C(F)(F)F` [drawing 130], for which the pest or weed control at 500 g/ha with Botrytis cinerea is 100%.

`C=C(C)CN(CC)c1c(-c2c(F)cc(F)cc2F)c(Cl)nc2c(C#N)cnn12` [drawing 134] came in with an Efficacy in % with Alternaria solani of 95%. `N#Cc1cnn2c(N3CCC(F)CC3)c(-c3c(F)cccc3Cl)c(Cl)nc12` [drawing 107]: the pest or weed control at 100 g/ha in the data set on Venturia inaequalis turned out to be 98%. Turning to `N#Cc1cnn2c(N3CCC(F)CC3)c(-c3c(F)cccc3Cl)c(Cl)nc12` [drawing 127], the pest or weed control at 500 g/ha in the data set on Botrytis cinerea was 94%. Regarding `CC1CCN(c2c(-c3ccccc3Cl)c(Cl)nc3c(C#N)cnn23)CC1` [drawing 106], in the data set on Venturia inaequalis, the pest or weed control at 100 g/ha amounted to 99%. In the case of `C[C@H](Nc1c(-c2c(F)cc(F)cc2F)c(Cl)nc2c(Cl)cnn12)C(F)(F)F` [drawing 140], the Efficacy in % in the data set on Pyricularia oryzae is recorded as 88%. For the molecule `CC(C)CN(C)c1c(-c2c(F)cccc2Cl)c(Cl)nc2c(C#N)cnn12` [drawing 128], in the data set on Botrytis cinerea, the pest or weed control at 500 g/ha came to 99%. Consider `CC(C)CN(C)c1c(-c2c(F)cc(F)cc2F)c(Cl)nc2c(C#N)cnn12` [drawing 101], for which the pest or weed control at 100 g/ha in the data set on Venturia inaequalis is 100%.

As for `CC(C)Nc1c(-c2c(F)cc(F)cc2F)c(Cl)nc2c(C#N)cnn12` [drawing 100], the pest or weed control at 100 g/ha with Venturia inaequalis was determined as 98%.

Consider `C[C@H](Nc1c(-c2c(F)cc(F)cc2F)c(Cl)nc2c(Cl)cnn12)C(F)(F)F` [drawing 96], for which, in the data set with Venturia inaequalis, the pest or weed control at 100 g/ha amounted to 98%. On the same count and under the same terms, under `CC(C)[C@@H](C)Nc1c(-c2c(F)cc(F)cc2F)c(Cl)nc2c(C#N)cnn12` [drawing 98] stands 100%.

For `C[C@H](Nc1c(-c2c(F)cc(F)cc2F)c(Cl)nc2c(C#N)cnn12)C(F)(F)F` [drawing 141], in the data set with Pyricularia oryzae, the Efficacy in % is listed as 88%.

For the molecule `N#Cc1cnn2c(NCC3CC3)c(-c3c(F)cccc3Cl)c(Cl)nc12` [drawing 93], in the data set on Venturia inaequalis, the pest or weed control at 100 g/ha was 100%. Still for that read-out and setting: under `C=C(C)CN(CC)c1c(-c2c(F)cc(F)cc2F)c(Cl)nc2c(C#N)cnn12` [drawing 94] stands 100%.

For `CC(C)CNc1c(-c2ccc(F)cc2F)c(Cl)nc2c(C#N)cnn12` [drawing 133], the Efficacy in % in the data set with Alternaria solani came to 95%. With `C[C@H](Nc1c(-c2c(F)cc(F)cc2F)c(Cl)nc2c(C#N)cnn12)C(F)(F)F` [drawing 115], the pest or weed control at 500 g/ha in the data set with Botrytis cinerea was determined as 99%. The molecule `N#Cc1cnn2c(N3CCOCC3)c(-c3c(F)cccc3Cl)c(Cl)nc12` [drawing 131] gave an Efficacy in % in the data set with Alternaria solani of 95%.

For the molecule `N#Cc1cnn2c(NCC3CC3)c(-c3c(F)cc(F)cc3F)c(Cl)nc12` [drawing 142], the Efficacy in % in the data set on Pyricularia oryzae is 86%. Consider `C[C@H](Nc1c(-c2c(F)cccc2Cl)c(Cl)nc2c(C#N)cnn12)C(F)(F)F` [drawing 110], for which the pest or weed control at 100 g/ha in the data set on Venturia inaequalis came out at 100%.

As for `CC1CCN(c2c(-c3ccccc3Cl)c(Cl)nc3c(C#N)cnn23)CC1` [drawing 126], the pest or weed control at 500 g/ha in the data set with Botrytis cinerea was determined as 95%.

Consider `CC(C)CN(C)c1c(-c2c(F)cccc2Cl)c(Cl)nc2c(C#N)cnn12` [drawing 108], for which the pest or weed control at 100 g/ha in the data set with Venturia inaequalis worked out at 99%.

Regarding `N#Cc1cnn2c(NCC3CC3)c(-c3c(F)cccc3Cl)c(Cl)nc12` [drawing 113], the pest or weed control at 500 g/ha with Botrytis cinerea was 99%. Turning to `CC1CCN(c2c(-c3c(F)cccc3Cl)c(Cl)nc3c(C#N)cnn23)CC1` [drawing 92], in the data set with Venturia inaequalis, the pest or weed control at 100 g/ha was 97%. On to `C=C(C)CN(C)c1c(-c2c(F)cc(F)cc2F)c(Cl)nc2c(C#N)cnn12` [drawing 122], for which, in the data set with Botrytis cinerea, the pest or weed control at 500 g/ha came to 100%. Same read-out and setting: under `Fc1cc(F)c(-c2c(Cl)nc3c(Cl)cnn3c2N2CCC(F)(F)CC2)c(F)c1` [drawing 117] stands 95%; under `CC(C)CN(C)c1c(-c2c(F)cc(F)cc2F)c(Cl)nc2c(C#N)cnn12` [drawing 121], 100%. In the case of `C=C(C)CN(C)c1c(-c2c(F)cc(F)cc2F)c(Cl)nc2c(C#N)cnn12` [drawing 102], the pest or weed control at 100 g/ha with Venturia inaequalis is 100%. Still for that read-out and setting: under `C[C@H](Nc1c(-c2c(F)cc(F)cc2F)c(Cl)nc2c(C#N)cnn12)C(F)(F)F` [drawing 95] stands 100%. Take `CC(C)Nc1c(-c2c(F)cc(F)cc2F)c(Cl)nc2c(C#N)cnn12` [drawing 120]: the pest or weed control at 500 g/ha in the data set with Botrytis cinerea is 93%. Still for that read-out and setting: to `N#Cc1cnn2c(N3CCCCC3)c(-c3c(F)cccc3Cl)c(Cl)nc12` [drawing 111] belongs 93%; to `CC(C)CN(C)c1c(-c2ccccc2Cl)c(Cl)nc2c(C#N)cnn12` [drawing 125], 100%. As for `CC(C)CN(C)c1c(-c2ccccc2Cl)c(Cl)nc2c(C#N)cnn12` [drawing 105], in the data set on Venturia inaequalis, the pest or weed control at 100 g/ha is 100%.

For `C[C@H](Nc1c(-c2ccc(F)cc2Cl)c(Cl)nc2c(C#N)cnn12)C(F)(F)F` [drawing 104], in the data set on Venturia inaequalis, the pest or weed control at 100 g/ha turned out to be 100%. In turn, `N#Cc1cnn2c(N3CCC(F)(F)CC3)c(-c3c(F)cc(F)cc3F)c(Cl)nc12` [drawing 136] returned an Efficacy in % with Alternaria solani of 90%. `CC(C)C(C)Nc1c(-c2c(F)cccc2Cl)cnc2c(C#N)cnn12` (stereo not drawn) [Example 4, 6-(2-chloro-6-fluorophenyl)-7-[(1,2-dimethylpropyl)amino)pyrazolo[1,5-a]pyrimidine-3-carbonitrile]: the chromatographic logP (as a rule, lipophilicity estimated from chromatographic retention) in the data set “physchem” (log P) is 3.78. In the data set “physchem” (logP), `CC(C)CN(C)c1c(-c2c(F)cccc2Cl)c(Cl)nc2c(C#N)cnn12` [compound 46] displayed a chromatographic logP of 4.51.

Regarding `C[C@H](Nc1c(-c2c(F)cc(F)cc2F)c(Cl)nc2c(Cl)cnn12)C(F)(F)F` [drawing 116], the pest or weed control at 500 g/ha in the data set with Botrytis cinerea came out at 100%. On to `CC1CCN(c2c(-c3ccccc3Cl)c(Cl)nc3c(C#N)cnn23)CC1` [compound 95], for which, in “physchem” (logP), the chromatographic logP is 4.78. As for `CC(C)Nc1c(-c2c(F)cc(F)cc2F)c(Cl)nc2c(C#N)cnn12` [compound 52], in the data set “physchem” (logP), the chromatographic logP came to 3.54.

For the molecule `CCC(C)Nc1c(-c2c(F)cc(F)cc2F)c(Cl)nc2c(C#N)cnn12` (stereo not drawn) [drawing 119], the pest or weed control at 500 g/ha in the data set on Botrytis cinerea worked out at 97%. Same read-out and setting: under `CC(C)[C@@H](C)Nc1c(-c2c(F)cc(F)cc2F)c(Cl)nc2c(C#N)cnn12` [drawing 118] stands 96%; under `C=C(C)CN(CC)c1c(-c2c(F)cccc2Cl)c(Cl)nc2c(C#N)cnn12` [drawing 129], 100%.

As to `CC(Nc1c(-c2ccc(F)cc2Cl)c(Cl)nc2c(C=O)cnn12)C(C)(C)C` (stereo not drawn) [Example 401, 3-formyl-5-chloro-6-(2-chloro-4-fluorophenyl)-7-(1,2,2-trimethylpropylamino)pyrazolo[1,5a]pyrimidine], the chromatographic logP in “physchem” (log P) and in the data set “physchem” (logP) was 4.43 throughout. In turn, `C[C@H](Nc1c(-c2c(F)cc(F)cc2F)c(Cl)nc2c(C#N)cnn12)C(F)(F)F` [drawing 135] came in with an Efficacy in % with Alternaria solani of 95%. On to `CC(C)CNc1c(-c2ccc(F)cc2F)c(Cl)nc2c(C#N)cnn12` [compound 148], for which, in “physchem” (logP), the chromatographic logP is 3.87. The same measure, in the same setting: to `N#Cc1cnn2c(N3CCOCC3)c(-c3c(F)cccc3Cl)c(Cl)nc12` [compound 14] belongs 3.26. As to `Fc1cc(F)c(-c2c(Cl)nc3c(Cl)cnn3c2N2CCC(F)(F)CC2)c(F)c1` [drawing 97], the pest or weed control at 100 g/ha in the data set on Venturia inaequalis came out at 100%. For `Fc1ccc(-c2cnc3c(Cl)cnn3c2Cl)c(Cl)c1` [Example 443, 3,7-dichloro-6-(2-chloro-4-fluorophenyl)pyrazolo[1,5-a]pyrimidine], the chromatographic logP in “physchem” (log P) amounted to 3.56. In the case of `C=C(C)CN(CC)c1c(-c2c(F)cc(F)cc2F)c(Cl)nc2c(C#N)cnn12` [drawing 114], the pest or weed control at 500 g/ha in the data set on Botrytis cinerea was 100%.

For the molecule `C=C(C)CN(CC)c1c(-c2c(F)cccc2Cl)c(Cl)nc2c(C#N)cnn12` [drawing 109], in the data set with Venturia inaequalis, the pest or weed control at 100 g/ha is 100%.

`N#Cc1cnn2c(N3CCCCC3)c(-c3c(F)cccc3Cl)c(Cl)nc12` [drawing 132] returned an Efficacy in % with Alternaria solani of 95%.

On to `CCC(C)Nc1c(-c2c(F)cc(F)cc2F)c(Cl)nc2c(C#N)cnn12` (stereo not drawn) [drawing 99], for which the pest or weed control at 100 g/ha in the data set on Venturia inaequalis was 100%.
